Tests used:
[1] = system: human hepatocytes; details: male, 72 h, 100 μM
[2] = system: BCRP; assay: cell batch quality control, BCRP-MDCK monolayers; assay type: in vitro ADME; details: dog; BCRP-MDCK cell batch QC; passage 23
Method: (§1) BCRP-MDCK cell monolayers were prepared at Absorption Systems. […] Each determination was performed in duplicate.

[3] = target: T1, BCRP (Homo sapiens, UniProt Q9UNQ0); assay: BCRP substrate assessment, BCRP-MDCK monolayers; assay type: in vitro ADME
T1 sequence (Q9UNQ0 1-655): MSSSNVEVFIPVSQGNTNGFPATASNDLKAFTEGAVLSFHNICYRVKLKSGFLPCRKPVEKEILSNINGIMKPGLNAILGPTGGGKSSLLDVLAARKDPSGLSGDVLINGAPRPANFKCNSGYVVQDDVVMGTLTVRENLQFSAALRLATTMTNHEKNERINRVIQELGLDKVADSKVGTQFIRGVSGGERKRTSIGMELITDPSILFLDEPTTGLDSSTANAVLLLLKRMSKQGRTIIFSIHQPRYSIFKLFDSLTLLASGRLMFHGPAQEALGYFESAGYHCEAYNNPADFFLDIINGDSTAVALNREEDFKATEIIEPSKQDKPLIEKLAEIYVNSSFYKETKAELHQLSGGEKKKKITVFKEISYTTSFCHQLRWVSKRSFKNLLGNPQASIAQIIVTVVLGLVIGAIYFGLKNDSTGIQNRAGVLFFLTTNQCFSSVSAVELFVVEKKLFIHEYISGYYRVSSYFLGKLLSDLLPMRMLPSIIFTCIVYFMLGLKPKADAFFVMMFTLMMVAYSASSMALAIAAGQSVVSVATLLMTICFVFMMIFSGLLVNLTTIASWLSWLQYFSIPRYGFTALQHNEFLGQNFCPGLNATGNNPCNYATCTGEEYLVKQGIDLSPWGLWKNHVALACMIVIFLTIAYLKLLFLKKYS
Method: as §1

[4] = target: T1, BCRP; assay: BCRP substrate assessment, Caco-2 monolayers; assay type: in vitro ADME; design: host or cells: Caco-2 (clone C2BBe1)
[5] = target: T1, BCRP; assay: in vitro

CN(C)CCCN1c2ccccc2Sc2ccc(Cl)cc21 [Chlorpromazine, chlorpromazine]
% MTS Absorbance Relative to Vehicle Control [1]: 59.4% | Formazan Absorbance (n = 6) Mean [1]: 0.174

Nc1nc(Cl)nc2c1ncn2[C@H]1C[C@H](O)[C@@H](CO)O1 [Cladribine, cladribine]
Papp A→B [2]: 0.136 ×10⁻⁶ cm/s | Papp B→A [2]: 18.4 ×10⁻⁶ cm/s | efflux ratio [2]: 135 | BCRP Substrate Classification ([3]; BCRP-MDCK, Cladribine): Positive | recovery at 120 min ([3]; dog, pH 7.4, BCRP-MDCK, Cladribine, A-to-B): 91.3% | Papp A→B at 120 min ([3]; dog, pH 7.4, BCRP-MDCK, Cladribine, A-to-B, read-out: Papp AVG): 0.211 ×10⁻⁶ cm/s | Papp A→B at 120 min ([3]; dog, pH 7.4, BCRP-MDCK, Cladribine, A-to-B, read-out: Papp R1): 0.142 ×10⁻⁶ cm/s | Papp A→B at 120 min ([3]; dog, pH 7.4, BCRP-MDCK, Cladribine, A-to-B, read-out: Papp R2): 0.28 ×10⁻⁶ cm/s | recovery at 120 min ([3]; dog, pH 7.4, BCRP-MDCK, Cladribine, B-to-A): 92.9% | Papp B→A at 120 min ([3]; dog, pH 7.4, BCRP-MDCK, Cladribine, B-to-A, read-out: Papp AVG): 17.6 ×10⁻⁶ cm/s | Papp B→A at 120 min ([3]; dog, pH 7.4, BCRP-MDCK, Cladribine, B-to-A, read-out: Papp R1): 15.6 ×10⁻⁶ cm/s | Papp B→A at 120 min ([3]; dog, pH 7.4, BCRP-MDCK, Cladribine, B-to-A, read-out: Papp R2): 19.6 ×10⁻⁶ cm/s | recovery at 120 min ([3]; dog, pH 7.4, with Ko143 0.5 µM, BCRP-MDCK, Cladribine + 0.5 μM Ko143, A-to-B): 93.5% | recovery at 120 min ([3]; dog, pH 7.4, with Ko143 0.5 µM, BCRP-MDCK, Cladribine + 0.5 μM Ko143, B-to-A): 107% | efflux ratio at 120 min ([3]; dog, pH 7.4, BCRP-MDCK, Cladribine): 83.3 | BCRP Substrate Classification ([4]; Caco-2, Cladribine): Positive | recovery at 120 min ([4]; human, Caco-2, pH 7.4, Caco-2, Cladribine, A-to-B): 80.5% | Papp A→B at 120 min ([4]; human, Caco-2, pH 7.4, Caco-2, Cladribine, A-to-B, read-out: Papp AVG): 0.58 ×10⁻⁶ cm/s | Papp A→B at 120 min ([4]; human, Caco-2, pH 7.4, Caco-2, Cladribine, A-to-B, read-out: Papp R1): 0.681 ×10⁻⁶ cm/s | Papp A→B at 120 min ([4]; human, Caco-2, pH 7.4, Caco-2, Cladribine, A-to-B, read-out: Papp R2): 0.478 ×10⁻⁶ cm/s | recovery at 120 min ([4]; human, Caco-2, pH 7.4, Caco-2, Cladribine, B-to-A): 85.6% | Papp B→A at 120 min ([4]; human, Caco-2, pH 7.4, Caco-2, Cladribine, B-to-A, read-out: Papp AVG): 18.5 ×10⁻⁶ cm/s | Papp B→A at 120 min ([4]; human, Caco-2, pH 7.4, Caco-2, Cladribine, B-to-A, read-out: Papp R1): 17.7 ×10⁻⁶ cm/s | Papp B→A at 120 min ([4]; human, Caco-2, pH 7.4, Caco-2, Cladribine, B-to-A, read-out: Papp R2): 19.3 ×10⁻⁶ cm/s | recovery at 120 min ([4]; human, Caco-2, pH 7.4, with Ko143 0.5 µM, Caco-2, Cladribine + 0.5 μM Ko143, A-to-B): 89.8% | recovery at 120 min ([4]; human, Caco-2, pH 7.4, with Ko143 0.5 µM, Caco-2, Cladribine + 0.5 μM Ko143, B-to-A): 87.7% | efflux ratio at 120 min ([4]; human, pH 7.4, Caco-2, Cladribine): 32 | efflux ratio ([5]; Caco-2, pH 7.4): 32 | recovery ([5]; Caco-2, pH 7.4, % Recovery, IC50 determination, Caco-2, Cladribine alone, B-A): 103% | Papp A→B ([5]; Caco-2, pH 7.4, Papp AVG, Caco-2, Cladribine alone, A-to-B): 0.58 ×10⁻⁶ cm/s | Papp B→A ([5]; Caco-2, pH 7.4, Papp AVG, Caco-2, Cladribine alone, B-to-A): 18.5 ×10⁻⁶ cm/s | Papp B→A ([5]; Caco-2, pH 7.4, Papp AVG, IC50 determination, Caco-2, Cladribine alone, B-A): 14.6 ×10⁻⁶ cm/s | Papp A→B ([5]; Caco-2, pH 7.4, Papp R1, Caco-2, Cladribine alone, A-to-B): 0.681 ×10⁻⁶ cm/s | Papp B→A ([5]; Caco-2, pH 7.4, Papp R1, Caco-2, Cladribine alone, B-to-A): 17.7 ×10⁻⁶ cm/s | Papp B→A ([5]; Caco-2, pH 7.4, Papp R1, IC50 determination, Caco-2, Cladribine alone, B-A): 17.8 ×10⁻⁶ cm/s | Papp A→B ([5]; Caco-2, pH 7.4, Papp R2, Caco-2, Cladribine alone, A-to-B): 0.478 ×10⁻⁶ cm/s | Papp B→A ([5]; Caco-2, pH 7.4, Papp R2, Caco-2, Cladribine alone, B-to-A): 19.3 ×10⁻⁶ cm/s | Papp B→A ([5]; Caco-2, pH 7.4, Papp R2, IC50 determination, Caco-2, Cladribine alone, B-A): 11.5 ×10⁻⁶ cm/s | recovery ([5]; Caco-2, pH 7.4, Recovery (%), Caco-2, Cladribine alone, A-to-B): 80.5% | recovery ([5]; Caco-2, pH 7.4, Recovery (%), Caco-2, Cladribine alone, B-to-A): 85.6%

Source: patent publication US20230049952A1, “METHODS AND COMPOUNDS FOR RESTORING MUTANT P53 FUNCTION” (PMV Pharmaceuticals, Inc., priority 2020, published 2023)
